target: REV-ERBα LBD (Homo sapiens, UniProt P20393, DEL324-422); assay: biochemical; settings: FRET assay; 6xHistag-REV-ERBα LBD with FITC-labeled SMRT corepressor peptide; read-out: REVERBα (Agonism of REV-ERBα, EC50)
Procedure: TR-FRET corepressor interaction assay. The time-resolved fluorescence resonance energy transfer (TR-FRET) assay was performed in black low-volume 384-well plates (Greiner). Each well contained 4 nM 6×Histag-REV-ERBα LBD (human; residues 281-614 A324-422) or 6×Histag-REV-ERBα LBD (human; residues 381-579) protein expressed in and purified from Escherichia coli using nickel affinity and size exclusion chromatography; 1 nM LanthaScreen Elite Tb-anti-HIS Antibody (Thermo Fisher Scientific); and 400 nM FITC-labeled peptide derived from the SMRT corepressor ([…]) containing a N-terminal FITC label with a six-carbon linker (Ahx) and an amidated C-terminus for stability (synthesized by LifeTein) in TR-FRET buffer (20 mM potassium phosphate, pH 7.4, 50 mM potassium chloride, 1 mM dithiothreitol, and 0.005% Tween-20). Ligand stocks were prepared via serial dilution in DMSO, added to wells in triplicate, and plates were incubated at 4° C. for 2 h and read using a BioTek Synergy Neo multimode plate reader. The Tb donor was excited at 340 nm; its fluorescence emission was monitored at 495 nm, and the acceptor FITC emission was measured at 520 nm; and the TR-FRET ratio was calculated as the signal at 520 nm divided by the signal at 495 nm. Data were plotted using GraphPad Prism as TR-FRET ratio vs. ligand concentration and fit to sigmoidal dose response curve equation.
Exemplary compounds of the present disclosure were assayed as described above to assess agonism of REV-ERBα. Results of the FRET assay are shown in Table 2 below (A: EC50<100 nM; B: EC50 100 nM-1000 nM; C: EC50>1000 nM; NT: not tested).

Chain of REV-ERBα LBD (P20393 with tags, fused parts or gaps DEL324-422): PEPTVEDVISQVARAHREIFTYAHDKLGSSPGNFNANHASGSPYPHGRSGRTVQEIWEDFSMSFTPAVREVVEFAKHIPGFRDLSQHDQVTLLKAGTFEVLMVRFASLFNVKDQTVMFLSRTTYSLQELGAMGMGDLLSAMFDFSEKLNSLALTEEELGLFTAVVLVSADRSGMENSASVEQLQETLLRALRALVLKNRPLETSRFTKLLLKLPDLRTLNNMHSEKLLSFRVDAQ
Chain of REV-ERBα LBD (Q9Y618 2335-2356 partner limits assumed): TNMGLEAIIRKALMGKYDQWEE

Row | Structure (SMILES) | EC50 [nM]
1 | Cc1nccc(C(F)(F)F)c1-c1cc2c(cc1F)c([C@H](NS(=O)(=O)C1CC1)C(F)F)cn2CC(C)(C)C [Compound 130, N-((1S)-2,2-difluoro-1-(5-fluoro-6-(2-methyl-4-(trifluoromethyl)pyridin-3-yl)-1-neopentyl-1H-indol-3-yl)ethyl)cyclopropanesulfonamide] | < 100
2 | CC(C)(C)Cn1cc([C@H](NS(=O)(=O)C2CC2)C(F)F)c2cc(F)c(C3CCOCC3)cc21 [Compound 172, (S)—N-(2,2-difluoro-1-(5-fluoro-1-neopentyl-6-(tetrahydro-2H-pyran-4-yl)-1H-indol-3-yl)ethyl)cyclopropanesulfonamide] | < 100
3 | O=S(=O)(N[C@@H](c1cn(C2CCC2)c2nc(-c3ccc(F)cc3C(F)(F)F)c(F)cc12)C(F)F)C1CC1 [Compound 155, (S)—N-(1-(1-cyclobutyl-5-fluoro-6-(4-fluoro-2-(trifluoromethyl)phenyl)-1H-pyrrolo[2,3-b]pyridin-3-yl)-2,2-difluoroethyl)cyclopropanesulfonamide] | < 100
4 | CC(NS(=O)(=O)C1CC1)c1cn(CC(C)(C)C)c2cc(-c3cncc(F)c3)c(F)cc12 (stereo not drawn) [Compound 68, N-(1-(5-fluoro-6-(5-fluoropyridin-3-yl)-1-neopentyl-1H-indol-3-yl)ethyl)cyclopropanesulfonamide] | 100 to 1000
5 | O=S(=O)(N[C@@H](c1cn(C2CCC2)c2cc(-c3cc(F)cnc3C(F)(F)F)c(F)cc12)C(F)F)C1CC1 [Compound 149, (S)—N-(1-(1-cyclobutyl-5-fluoro-6-(5-fluoro-2-(trifluoromethyl)pyridin-3-yl)-1H-indol-3-yl)-2,2-difluoroethyl)cyclopropanesulfonamide] | < 100
6 | CC(C)(C)Cn1cc([C@H](NS(=O)(=O)C2CC2)C(F)F)c2cc(F)c(-c3ccc(F)cc3C(F)(F)F)nc21 [Compound 153, (S)—N-(2,2-difluoro-1-(5-fluoro-6-(4-fluoro-2-(trifluoromethyl)phenyl)-1-neopentyl-1H-pyrrolo[2,3-b]pyridin-3-yl)ethyl)cyclopropanesulfonamide] | < 100
7 | CC(C)(C)Cn1cc([C@H](NS(=O)(=O)C2CC2)C(F)F)c2cc(F)c(-c3ccc(=O)[nH]c3C(F)(F)F)cc21 [Compound 169, (S)—N-(2,2-difluoro-1-(5-fluoro-1-neopentyl-6-(6-oxo-2-(trifluoromethyl)-1,6-dihydropyridin-3-yl)-1H-indol-3-yl)ethyl)cyclopropanesulfonamide] | < 100
8 | CC(NS(=O)(=O)C1CC1)c1cn(CC(C)(C)C)c2cc(-c3ccc(C#N)nc3)c(F)cc12 (stereo not drawn) [Compound 69, N-(1-(6-(6-cyanopyridin-3-yl)-5-fluoro-1-neopentyl-1H-indol-3-yl)ethyl)cyclopropanesulfonamide] | 100 to 1000
9 | CC(C)(C)Cn1cc([C@H](NS(=O)(=O)C2CC2)C(F)(F)F)c2ccc(-c3ccccc3C#N)nc21 [Compound 1, (S)—N-(1-(6-(2-cyanophenyl)-1-neopentyl-1H-pyrrolo[2,3-b]pyridin-3-yl)-2,2,2-trifluoroethyl)cyclopropanesulfonamide] | 100 to 1000
10 | CC(NS(=O)(=O)C1CC1)c1cn(CC(C)(C)C)c2cc(-c3c(F)cccc3C#N)ccc12 (single isomer, unassigned) [Compound 27, (S or R) N-[(1R)-1-[6-(2-cyano-6-fluoro-phenyl)-1-(2,2-dimethylpropyl)indol-3-yl]ethyl]cyclo] | < 100
11 | CC(NS(=O)(=O)C1CC1)c1cn(CC(C)(C)C)c2cc(-c3cncc(C#N)c3)c(F)cc12 (stereo not drawn) [Compound 37, N-[1-[6-(5-cyano-3-pyridyl)-1-(2,2-dimethylpropyl)-5-fluoro-indol-3-yl]ethyl]cyclopropanesulfonamide] | 100 to 1000
12 | CC(C)(C)Cn1cc([C@H](NS(=O)(=O)C2CC2)C(F)F)c2ccc(-c3c[n+]([O-])ccc3C(F)(F)F)cc21 [Compound 107, (S)-3-(3-(1-(cyclopropanesulfonamido)-2,2-difluoroethyl)-1-neopentyl-1H-indol-6-yl)-4-(trifluoromethyl)pyridine 1-oxide] | < 100
13 | CC(C)(C)Cn1cc([C@H](NS(=O)(=O)C2CC2)C(F)F)c2ccc(-c3ccc(F)cc3C(F)(F)F)nc21 [Compound 4, (S)—N-(2,2-difluoro-1-(6-(4-fluoro-2-(trifluoromethyl)phenyl)-1-neopentyl-1H-pyrrolo[2,3-b]pyridin-3-yl)ethyl)cyclopropanesulfonamide] | < 100
14 | CC(C)(C)Cn1cc([C@H](NS(=O)(=O)C2CCC2)C(F)F)c2cc(F)c(-c3c(C#N)cccc3C(F)(F)F)cc21 [Compound 136, N-((1S)-1-(6-(2-cyano-6-(trifluoromethyl)phenyl)-5-fluoro-1-neopentyl-1H-indol-3-yl)-2,2-difluoroethyl)cyclobutanesulfonamide] | < 100
15 | Cn1ncc(C(F)F)c1-c1cc2c(cc1F)c([C@H](NS(=O)(=O)C1CC1)C(F)F)cn2CC(C)(C)C [Compound 125, (S)—N-(1-(6-(4-(difluoromethyl)-1-methyl-1H-pyrazol-5-yl)-5-fluoro-1-neopentyl-1H-indol-3-yl)-2,2-difluoroethyl)cyclopropanesulfonamide] | < 100
16 | O=S(=O)(N[C@@H](c1cn(C2CCC2)c2nc(-c3cccnc3C(F)(F)F)c(F)cc12)C(F)F)C1CC1 [Compound 147] | < 100
17 | CC(NS(=O)(=O)C1CC1)c1cn(CC(C)(C)C)c2cc(-c3ncc(F)cc3Cl)c(F)cc12 (stereo not drawn) [Compound 62, N-(1-(6-(3-chloro-5-fluoropyridin-2-yl)-5-fluoro-1-neopentyl-1H-indol-3-yl)ethyl)cyclopropanesulfonamide] | < 100

Second part, the molecule after the results:

Row | EC50 [nM] | Structure (SMILES)
18 | < 100 | CC(C)(C)Cn1cc([C@H](NS(=O)(=O)C2CC2)C(F)F)c2ccc(-c3ccccc3C(F)F)cc21 [Compound 81, (S)—N-(1-(6-(2-(difluoromethyl)phenyl)-1-neopentyl-1H-indol-3-yl)-2,2-difluoroethyl)cyclopropanesulfonamide]
19 | < 100 | CC(C)(C)Cn1cc([C@H](NS(=O)(=O)C2CC2)C(F)F)c2ccc(-c3cc(F)cnc3C#N)cc21 [Compound 86, (S)—N-(1-(6-(2-cyano-5-fluoropyridin-3-yl)-1-neopentyl-1H-indol-3-yl)-2,2-difluoroethyl)cyclopropanesulfonamide]
20 | < 100 | Cc1cnc(-c2cc3c(cc2F)c([C@H](NS(=O)(=O)C2CC2)C(F)F)cn3CC(C)(C)C)c(C(F)(F)F)n1 [Compound 144, (S)—N-(2,2-difluoro-1-(5-fluoro-6-(5-methyl-3-(trifluoromethyl)pyrazin-2-yl)-1-neopentyl-1H-indol-3-yl)ethyl)cyclopropanesulfonamide]
21 | < 100 | CC(C)(C)Cn1cc([C@H](NS(=O)(=O)C2CC2)C(F)F)c2ccc(-c3ncc(Cl)cc3F)cc21 [Compound 77, (S)—N-(1-(6-(5-chloro-3-fluoropyridin-2-yl)-1-neopentyl-1H-indol-3-yl)-2,2-difluoroethyl)cyclopropanesulfonamide]
22 | < 100 | CC(C)(C)Cn1cc([C@H](NS(=O)(=O)C2CC2)C(F)F)c2ccc(-c3ncccc3F)cc21 [Compound 83, (S)—N-(2,2-difluoro-1-(6-(3-fluoropyridin-2-yl)-1-neopentyl-1H-indol-3-yl)ethyl)cyclopropanesulfonamide]
23 | < 100 | CC(C)(C)Cn1cc([C@H](NS(=O)(=O)C2CC2)C(F)F)c2ccc(-c3c(C(F)F)ccnc3C#N)cc21 [Compound 118, (S)—N-(1-(6-(2-cyano-4-(difluoromethyl)pyridin-3-yl)-1-neopentyl-1H-indol-3-yl)-2,2-difluoroethyl)cyclopropanesulfonamide]
24 | < 100 | CC(C)(C)Cn1cc([C@H](NS(=O)(=O)C2CC2)C(F)F)c2cc(F)c(-c3ncccc3F)cc21 [Compound 89, (S)—N-(2,2-difluoro-1-(5-fluoro-6-(3-fluoropyridin-2-yl)-1-neopentyl-1H-indol-3-yl)ethyl)cyclopropanesulfonamide]
25 | < 100 | CC(C)(C)Cn1cc([C@H](NS(=O)(=O)C2CC2)C(F)F)c2ccc(-c3ncc(F)cc3F)cc21 [Compound 84, (S)—N-(1-(6-(3,5-difluoropyridin-2-yl)-1-neopentyl-1H-indol-3-yl)-2,2-difluoroethyl)cyclopropanesulfonamide]
26 | < 100 | CC(C)(C)Cn1cc([C@H](NS(=O)(=O)C2CC2)C(F)F)c2ccc(-c3cc(F)cnc3C(F)F)cc21 [Compound 119, (S)—N-(1-(6-(2-(difluoromethyl)-5-fluoropyridin-3-yl)-1-neopentyl-1H-indol-3-yl)-2,2-difluoroethyl)cyclopropanesulfonamide]
27 | < 100 | CC(C)(C)Cn1cc([C@H](NS(=O)(=O)C2CC2)C(F)F)c2ccc(-c3ccc(N)nc3C(F)(F)F)cc21 [Compound 167, (S)—N-(1-(6-(6-amino-2-(trifluoromethyl)pyridin-3-yl)-1-neopentyl-1H-indol-3-yl)-2,2-difluoroethyl)cyclopropanesulfonamide]
